Bounds are passed on as bounds.

What all share (type): biochemical
Assay [1] concerns the target T1, JAK2 (Homo sapiens, UniProt O60674).
T1 construct: All four purified enzymes contain only the catalytic domain; His (N); purchased Carna Biosciences, Inc; host or cells: baculovirus expression system
Kind of assay: JAK2 kinase assay (HTRF, inhibition of phosphorylation of a synthetic peptide). The following applies: catalytic domain, His-tag; 4 μM ATP (Km); read-out: JAK2 kinase inhibitory activity (EC50). The protocol: (§1) JAK1, JAK2, JAK3 and TYK2 Kinase Assays:
(§2) Human baculovirus-expressed JAK1, 2, 3 and TYK2 were purchased from Carna Biosciences, Inc. All four purified enzymes contain only the catalytic domain. JAK1 (aa 850-1154) and TYK2 (aa 871-1187) are expressed with an N-terminally fused GST-tag, and JAK2 and JAK3 with an N-terminally fused His-tag. Inhibition of phosphorylation of a synthetic peptide was measured in an HTRF-based assay using the TK substrate-Biotin from the CisbioHTRFKinEASE TK kit. First, 2 μl of TK solution (TK substrate-biotin in kinase buffer [1× enzymatic buffer from HTRFKinEASE TK kit, 1 mM DTT]) is added to a plate containing 1 μl prediluted compound (final assay concentration DMSO: 0.75%). Then, 5 μl kinase-ATP mix (prepared in kinase buffer) is added to the wells and the plates are incubated at RT for 20-30 min. For all four kinases a concentration of ATP that corresponded to the Km for ATP was used. The final concentrations of buffers, substrate, kinase and ATP were: JAK1: 50 mMHepes buffer pH 7.0, 0.01% BSA, 10 mM MgCl2, 1 mM DTT, 7 μM ATP, 50 nMSEB, 1 μM TK Substrate-Biotin and 5 ng JAK1; JAK2: 50 mM Hepes buffer pH 7.0, 0.01% BSA, 5 mM MgCl2, 1 mM DTT, 4 μM ATP, 1 μM TK Substrate-Biotin and 0.1 ng JAK2; JAK3: 50 mMHepes buffer pH 7.0, 0.01% BSA, 5 mM MgCl2, 1 mM DTT, 2 μM ATP, 1 μM TK Substrate-Biotin and 0.3 ng JAK3; TYK2: 50 mMHepes buffer pH 7.0, 0.01% BSA, 5 mM MgCl2, 1 mM DTT, 13 μM ATP, 50 nMSEB, 1 μM TK Substrate-Biotin and 0.8 ng TYK2. Thereafter, the kinase reaction is stopped by adding 4 μl detection mix (final concentrations: 50 mM Hepes buffer pH 7.0, 0.01% BSA, 0.8 M KF, 20 mM EDTA, 42 nM Streptavidin-XL665 and 1:400 STKAbCryptate) and the plates are incubated overnight in the dark. The HTRF signal is read using an Envision plate reader.
A general note: TR-FRET usually uses a lanthanide donor and a delayed reading to cut background.

Assay [2] deals with T2, JAK1 (Homo sapiens, UniProt P23458).
T2 construct: JAK1 (aa 850-1154) and TYK2 (aa 871-1187) are expressed with an N-terminally fused GST-tag; GST (N); purchased Carna Biosciences, Inc; host or cells: baculovirus expression system
T2 sequence (P23458 850-1154): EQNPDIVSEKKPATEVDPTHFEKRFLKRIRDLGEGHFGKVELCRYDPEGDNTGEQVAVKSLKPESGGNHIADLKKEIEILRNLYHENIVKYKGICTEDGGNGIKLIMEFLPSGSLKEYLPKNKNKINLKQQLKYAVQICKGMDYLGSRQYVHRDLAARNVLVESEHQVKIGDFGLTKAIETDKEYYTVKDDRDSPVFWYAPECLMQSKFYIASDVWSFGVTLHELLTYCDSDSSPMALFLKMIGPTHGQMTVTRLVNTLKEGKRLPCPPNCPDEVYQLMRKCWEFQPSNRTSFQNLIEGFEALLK
Nature of the assay: JAK1 kinase assay (HTRF, inhibition of phosphorylation of a synthetic peptide). The following applies: catalytic domain aa 850-1154, GST-tag; 7 μM ATP (Km); read-out: JAK1 kinase inhibitory activity (EC50). The protocol: as §1, §2

Assay [3] addresses T3, JAK3 (Homo sapiens, UniProt P52333).
T3 construct: All four purified enzymes contain only the catalytic domain; His (N); purchased Carna Biosciences, Inc; host or cells: baculovirus expression system
Kind of assay: JAK3 kinase assay (HTRF, inhibition of phosphorylation of a synthetic peptide). The conditions noted are these: catalytic domain, His-tag; 2 μM ATP (Km); read-out: JAK3 kinase inhibitory activity (EC50). The protocol:
as §1, §2

T1 sequence (O60674 849-1124 limits assumed): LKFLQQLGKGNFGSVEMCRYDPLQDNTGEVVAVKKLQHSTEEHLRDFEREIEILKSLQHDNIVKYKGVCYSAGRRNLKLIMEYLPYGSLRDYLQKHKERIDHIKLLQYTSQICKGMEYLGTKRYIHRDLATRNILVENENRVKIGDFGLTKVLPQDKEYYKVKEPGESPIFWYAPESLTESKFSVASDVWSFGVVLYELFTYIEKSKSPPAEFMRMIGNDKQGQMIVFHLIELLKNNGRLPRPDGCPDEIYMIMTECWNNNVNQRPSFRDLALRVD
T3 sequence (P52333 822-1111 limits assumed): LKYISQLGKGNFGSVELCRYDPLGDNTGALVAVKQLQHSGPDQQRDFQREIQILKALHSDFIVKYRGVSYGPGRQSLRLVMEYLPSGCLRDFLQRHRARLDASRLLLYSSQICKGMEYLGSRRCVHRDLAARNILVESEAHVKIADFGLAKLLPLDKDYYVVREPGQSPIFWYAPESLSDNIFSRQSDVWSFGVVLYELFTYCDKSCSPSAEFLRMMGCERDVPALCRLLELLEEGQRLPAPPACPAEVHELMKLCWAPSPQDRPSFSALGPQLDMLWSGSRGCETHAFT

Broadly, the EC50 is the concentration at which the effect is half-maximal. Consider `O=C(c1ccccc1F)N1CCCN(c2ncnc3[nH]ccc23)CC12CC2` [Example 112, (2-fluorophenyl)-[5-(7H-pyrrolo[2,3-d]pyrimidin-4-yl)-5,9-diazaspiro[2.6]nonan-9-yl]methanone], for which the results for the concentration giving a half-maximal response (EC50) in assay [1], in assay [2] and in assay [3] were below 100 nM, 100 to 1000 nM and 100 to 1000 nM, respectively.
Regarding `O=C(CN1CCOC1=O)N1CCN(c2ncnc3[nH]ccc23)CC2(CC2)C1` [Example 81, 3-[2-oxo-2-[5-(7H-pyrrolo[2,3-d]pyrimidin-4-yl)-5,8-diazaspiro[2.6]nonan-8-yl]ethyl]oxazolidin-2-one], the EC50 in assay [1], in assay [2] and in assay [3] was 100 to 1000 nM throughout.
For the compound `O=C(c1cscn1)N1CCCN(c2ncnc3[nH]ccc23)CC12CC2` [Example 227, [5-(7H-pyrrolo[2,3-d]pyrimidin-4-yl)-5,9-diazaspiro[2.6]nonan-9-yl]-thiazol-4-yl-methanone], the figures for the EC50 in assay [1], in assay [2] and in assay [3] were below 100 nM, 100 to 1000 nM and 100 to 1000 nM, respectively.
Regarding `O=C(c1nc[nH]n1)N1CCN(c2ncnc3[nH]ccc23)CC2(CC2)C1` [Example 195, [5-(7H-pyrrolo[2,3-d]pyrimidin-4-yl)-5,8-diazaspiro[2.6]nonan-8-yl]-(1H-1,2,4-triazol-3-yl)methanone], the EC50 is 100 to 1000 nM in assay [1], 100 to 1000 nM in assay [2] and above 1000 nM in assay [3].
For the compound `Cc1noc(C)c1C(=O)N1CCN(c2ncnc3[nH]ccc23)CC2(CC2)C1` [Example 170, (3,5-dimethylisoxazol-4-yl)-[5-(7H-pyrrolo[2,3-d]pyrimidin-4-yl)-5,8-diazaspiro[2.6]nonan-8-yl]methanone], the concentration giving a half-maximal response (EC50) in assay [1], in assay [2] and in assay [3] was above 1000 nM throughout.
For `O=C(c1ccno1)N1CCCN(c2ncnc3[nH]ccc23)CC12CC2` [Example 181, isoxazol-5-yl-[5-(7H-pyrrolo[2,3-d]pyrimidin-4-yl)-5,9-diazaspiro[2.6]nonan-9-yl]methanone], the EC50 is below 100 nM in assay [1], below 100 nM in assay [2] and 100 to 1000 nM in assay [3].
Turning to `Cc1cc(C(=O)N2CCCN(c3ncnc4[nH]ccc34)CC23CC3)sn1` [Example 234, (3-methylisothiazol-5-yl)-[5-(7H-pyrrolo[2,3-d]pyrimidin-4-yl)-5,9-diazaspiro[2.6]nonan-9-yl]methanone], the EC50 is 100 to 1000 nM in assay [1], above 1000 nM in assay [2] and above 1000 nM in assay [3].
As to `CN1CCN(CC(=O)N2CCCN(c3ncnc4[nH]ccc34)CC23CC3)C1=O` [Example 83, 1-methyl-3-[2-oxo-2-[5-(7H-pyrrolo[2,3-d]pyrimidin-4-yl)-5,9-diazaspiro[2.6]nonan-9-yl]ethyl]imidazolidin-2-one], the EC50 in assay [1], in assay [2] and in assay [3] was 100 to 1000 nM in each case.
For the compound `Cc1nnc(C(=O)N2CCCN(c3ncnc4[nH]ccc34)CC23CC3)o1` [Example 154, (5-methyl-1,3,4-oxadiazol-2-yl)-[5-(7H-pyrrolo[2,3-d]pyrimidin-4-yl)-5,9-diazaspiro[2.6]nonan-9-yl]methanone], the EC50 is below 100 nM in assay [1], 100 to 1000 nM in assay [2] and 100 to 1000 nM in assay [3].
Turning to `Cc1ncccc1C(=O)N1CCN(c2ncnc3[nH]ccc23)CC2(CC2)C1` [Example 135, (2-methyl-3-pyridyl)-[5-(7H-pyrrolo[2,3-d]pyrimidin-4-yl)-5,8-diazaspiro[2.6]nonan-8-yl]methanone], the EC50 in assay [1], in assay [2] and in assay [3] was above 1000 nM throughout.
In the case of `O=C(c1cccnc1)N1CCN(c2ncnc3[nH]ccc23)CC2(CC2)C1` [Example 127, 3-pyridyl-[5-(7H-pyrrolo[2,3-d]pyrimidin-4-yl)-5,8-diazaspiro[2.6]nonan-8-yl]methanone], the EC50 in assay [1] was 100 to 1000 nM; in assay [2], 100 to 1000 nM; in assay [3], above 1000 nM.
Take `N#Cc1ccccc1CC(=O)N1CCN(c2ncnc3[nH]ccc23)CC2(CC2)C1` [Example 272, 2-[2-oxo-2-[5-(7H-pyrrolo[2,3-d]pyrimidin-4-yl)-5,8-diazaspiro[2.6]nonan-8-yl]ethyl]benzonitrile]: the EC50 in assay [1] was below 100 nM; in assay [2], 100 to 1000 nM; in assay [3] it was 100 to 1000 nM.
With `O=C(c1ccns1)N1CCN(c2ncnc3[nH]ccc23)CC2(CC2)C1` [Example 235, isothiazol-5-yl-[5-(7H-pyrrolo[2,3-d]pyrimidin-4-yl)-5,8-diazaspiro[2.6]nonan-8-yl]methanone], the EC50 in assay [1], in assay [2] and in assay [3] was 100 to 1000 nM in each case.
In the case of `O=C(c1cc(O)[nH]n1)N1CCCN(c2ncnc3[nH]ccc23)CC12CC2` [Example 212, (5-hydroxy-1H-pyrazol-3-yl)-[5-(7H-pyrrolo[2,3-d]pyrimidin-4-yl)-5,9-diazaspiro[2.6]nonan-9-yl]methanone], the EC50 in assay [1], in assay [2] and in assay [3] was 100 to 1000 nM each time.
As for `CN(C)c1ccc(CC(=O)N2CCN(c3ncnc4[nH]ccc34)CC3(CC3)C2)cc1` [Example 268, 2-(4-dimethylaminophenyl)-1-[5-(7H-pyrrolo[2,3-d]pyrimidin-4-yl)-5,8-diazaspiro[2.6]nonan-8-yl]ethanone], the results for the EC50 in assay [1], in assay [2] and in assay [3] were below 100 nM, 100 to 1000 nM and 100 to 1000 nM, respectively.
With `Cc1ccc(S(=O)(=O)N2CCN(c3ncnc4[nH]ccc34)CC3(CC3)C2)cc1` [Example 96, 4-[8-(p-tolylsulfonyl)-5,8-diazaspiro[2.6]nonan-5-yl]-7H-pyrrolo[2,3-d]pyrimidine], the EC50 in assay [1] is 100 to 1000 nM; in assay [2] it was 100 to 1000 nM; in assay [3], above 1000 nM.
`CN1CC(=O)N(CC(=O)N2CCN(c3ncnc4[nH]ccc34)CC3(CC3)C2)C1=O` [Example 80, 1-methyl-3-[2-oxo-2-[5-(7H-pyrrolo[2,3-d]pyrimidin-4-yl)-5,8-diazaspiro[2.6]nonan-8-yl]ethyl]imidazolidine-2,4-dione]: the values for the concentration for a half-maximal effect (EC50) in assay [1], in assay [2] and in assay [3] were below 100 nM, 100 to 1000 nM and 100 to 1000 nM, respectively.
For the compound `CCCC1=NOC(C(=O)N2CCCN(c3ncnc4[nH]ccc34)CC23CC3)C1` (stereo not drawn) [Example 124, (3-propyl-4,5-dihydroisoxazol-5-yl)-[5-(7H-pyrrolo[2,3-d]pyrimidin-4-yl)-5,9-diazaspiro[2.6]nonan-9-yl]methanone], the EC50 in assay [1], in assay [2] and in assay [3] was 100 to 1000 nM each time.
Turning to `Cc1cc(C(=O)N2CCCN(c3ncnc4[nH]ccc34)CC23CC3)n(C)n1` [Example 193, (2,5-dimethylpyrazol-3-yl)-[5-(7H-pyrrolo[2,3-d]pyrimidin-4-yl)-5,9-diazaspiro[2.6]nonan-9-yl]methanone], the EC50 in assay [1] is below 100 nM; in assay [2] it was 100 to 1000 nM; in assay [3], above 1000 nM.
For `O=C(c1ccc(F)cc1)N1CCCN(c2ncnc3[nH]ccc23)CC12CC2` [Example 114, (4-fluorophenyl)-[5-(7H-pyrrolo[2,3-d]pyrimidin-4-yl)-5,9-diazaspiro[2.6]nonan-9-yl]methanone] the same measures were below 100 nM, 100 to 1000 nM and 100 to 1000 nM.
For `Cc1cc(CC(=O)N2CCN(c3ncnc4[nH]ccc34)CC3(CC3)C2)n[nH]1` [Example 248, 2-(5-methyl-1H-pyrazol-3-yl)-1-[5-(7H-pyrrolo[2,3-d]pyrimidin-4-yl)-5,8-diazaspiro[2.6]nonan-8-yl]ethanone], in that order: below 100 nM, 100 to 1000 nM and above 1000 nM.
For `Cc1cc(C(=O)N2CCCN(c3ncnc4[nH]ccc34)CC23CC3)ccn1` [Example 172, (2-methyl-4-pyridyl)-[5-(7H-pyrrolo[2,3-d]pyrimidin-4-yl)-5,9-diazaspiro[2.6]nonan-9-yl]methanone] the same measures were 100 to 1000 nM, 100 to 1000 nM and above 1000 nM.

Source of the values: patent US9586961B2, “Homopiperazine derivatives as protein tyrosine kinase inhibitors and pharmaceutical use thereof” (LEO PHARMA A/S, priority 2010, dated 2017).
